Data as given in patent US9938321B2, “Cyclic peptoid oligomers, pharmaceutical compositions and methods of using the same” (priority 2013, dated 2018).
In brackets after ≈: the same amount, converted by molar mass. Read-outs that look alike come from different tables or passages of the source. Each block holds one compound with its values, some of them ahead of it. Non-standard residues stand in square brackets, D forms with d. Residues, ends and D or L forms follow the SMILES beside them. Gly(N(CH2)3NH2) = NCCCNCC(=O)O; Nphe = O=C(O)CNCc1ccccc1; Orn = NCCC[C@H](N)C(=O)O; Nlys = NCCCCNCC(=O)O

Legend:
in vitro = conditions: for CC50 at 1 h / CC50: LC50 (50% lethal concentration), HeLa cells, 1 hr incubation at 37° C.
Description: (§1) As an additional parameter of selectivity, the inventors also evaluated the compounds for toxicity towards nucleated mammalian cells (FIG. 3). The compounds were incubated with HeLa cells for 1 hr at 37° C. and cell viability was determined by a dye-based assay.
(§2) HeLa cells (˜[…] cells per well) were seeded in a tissue culture-treated 96-well plate (Corning). The cells were monitored for confluence via light microscopy prior to the addition of compounds to a final volume of 100 μL/well. Following incubation with the compounds (for 1 hour or 24 hours at 37° C.), Cell Titer (Promega) was added to each well and the assay was allowed to develop for 1 hour at 37° C. Absorbance was then read at 490 nm using a Wallac Envision plate reader. The experiments were always conducted in triplicate with water or ethanol as the negative control. Percent cell viability (% CV) was calculated as the ratio of mean absorbance of the test wells and the mean absorbance of the water or ethanol treated wells.
(§3) Following seeding in DMEM supplemented with 10% v/v FBS (fetal bovine serum) in tissue-culture plates (Corning), adherent HeLa cells were trypsinized, washed in PBS, and re-suspended in medium at a density of 1×10^6 cells/mL. A 100 μL cell suspension was seeded onto a 96-well plate and cultured for 25 hrs. Subsequently, cells were exposed to the different compounds for 1 and 24 hrs and the cell viability evaluated using CellTiter 96® AQueous Non-Radioactive Cell Proliferation Assay (Promega).

[1] = test system: MRSA USA300 (S. aureus LAC)
Description: The cyclic pentamers and hexamers were evaluated for antimicrobial activity against S. aureus LAC, a clinical isolate of MRSA. The antimicrobial assay was conducted using previously published procedures (CLSI Broth Macrodilution Procedures CLSI M07-A7).
(§4) Minimum Inhibitory Concentrations (MIC) were determined against S. aureus LAC in RPMI media supplemented with or without normal human serum (NHS). The 10% hemolytic dose was determined from lysis of human erythrocytes. A selectivity ratio (SR) is defined as HC10/MIC. Cytotoxicity assays were performed using a CellTiter kit with HeLa cells. […] TI: therapeutic index defined as LD50/MIC.
(§5) Antimicrobial susceptibility assays were conducted in 96-well plates using the broth microdilution procedure outlined in the document M07-A7 of the CLSI (Clinical and Laboratory Standards Institute. Methods for Dilution Antimicrobial Susceptibility Tests for Bacteria That Grow Aerobically-Seventh Edition: Approved Standard CLSI document M07-A7. CLSI, Wayne, USA, 2006). Screens against Staphylococcus aureus LAC, MW2, Newman, and RN6734 were conducted in RPMI (Roswell Park Memorial Institute) medium. For assays in serum, normal human pooled serum (NHS) was filtered through a 0.45 μm syringe filter (Pall) prior to dilution with RPMI, such that each well contained 50% (v/v) NHS. Experiments were conducted in three independent replicates of three parallel trials to ensure statistical significance.
(§6) MRSA pulse-field gel electrophoresis types USA300 (strain LAC) (Kennedy, et al, Proc. Natl. Acad. Sci. U.S.A. 2008, 105, 1327-1332) and USA500 (BK2395) (Alonzo, 3rd, et al, Mol. Microbiol. 2012, 83, 423-435) were used in this study. S. aureus were grown in tryptic soy broth (BD Biosciences) as described previously. (Alonzo) Antimicrobial susceptibility assays were conducted in 96-well plates using the broth […] procedure outlined in the document M07-A7 of the CLSI. (Clinical and Laboratory Standards Institute. Methods for Dilution Antimicrobial Susceptibility Tests for Bacteria That Grow Aerobically-Seventh Edition: Approved Standard CLSI document M07-A7. CLSI, Wayne, USA, 2006). The screens against Staphylococcus aureus LAC were conducted in either LB (Luria-Bertani) or RPMI medium. For assays in serum, normal human pooled serum (NHS) was filtered through a 0.45 μm syringe filter (Pall) prior to dilution with RPMI, such that each well contained 50% (v/v) NHS. Experiments were conducted in three independent replicates of three parallel trials to ensure statistical significance.

[2] = test system: MRSA USA300 (S. aureus LAC); conditions: for decrease in anti-microbial activity in serum: 50% NHS versus no serum; for MIC + NHS: MRSA USA300 in 50% (v/v) normal human serum
Description: The antimicrobial activities of these four compounds were evaluated in the presence of serum. Such a consideration is critical in evaluating the potential of antimicrobial compounds to be used systemically, as serum components (e.g. proteins) may complicate antimicrobial activity. The assay was conducted similarly as described above, with the media supplemented with 50% normal human serum (NHS).
as §4, §5, §6

human erythrocytes = format: cell-based; conditions: red cells of human, 1 h
Excerpt: A detrimental property of most AMPs is their toxicity towards host cells due to non-specific interactions with eukaryotic membranes. Thus, the development of antimicrobial oligomers is often aimed at maximizing antimicrobial activity while minimizing eukaryotic cell toxicity. The inventors therefore sought to determine the toxicity of the cyclic peptoids by measuring hemolytic activity. The concentration of antimicrobial compound required to lyse 10% of human erythrocytes (HC10) following incubation for 1 hour at 37° C., was determined.
Hemolysis assays were conducted in 96-well plates using fresh human erythrocytes in PBS (phosphate-buffered saline) solution. Erythrocytes treated with a detergent (1% Triton X-100) solution were used as a positive control for erythrocyte lysis, and vehicle buffer (PBS) was used as a negative control. Hemolytic percentages were defined as [(A−Atestblank)/(Acontrol−Ablank)]×100, where A is the absorbance of the test well and Acontrol the average absorbance of wells with erythrocytes exposed to […], Atestblank (PBS and antimicrobial) and Ablank (PBS only).

S. aureus LAC = experiment: Scanning electron microscopy of treated cells (Example 1); format: cell-based, Staphylococcus aureus; conditions: sub-MIC, MIC, or supra-MIC; 1 hr or 18 hr
Excerpt: AMPs have long been thought to exert their bactericidal activities by interacting with negatively-charged bacterial membranes (Zasloff, Nature 2002, 415, 389-395; Ivankin, et al, Angew. Chem. Int. Ed. 2010, 49, 8462-8465). While the exact mode of action has yet to be fully understood, the interaction of the AMP eventually leads to damage of the bacterial membrane that is visible by scanning electron microscopy (SEM). (Hartmann et al, 2010, Antimicrob Agents Ch 54, 3132-3142) SEM was used to examine the morphological changes which occur to the S. aureus cell surface upon exposure to peptoid antimicrobials (FIG. 2).
SEM samples were prepared following the procedure outlined in Hartmann et al ([…], Antimicrob Agents Ch 54:3132-3142). Mid-exponential S. aureus LAC in LB medium (10 g/L tryptone and 5 g/L yeast, pH 7.4) was prepared by diluting an overnight culture of S. aureus LAC in LB media till OD600˜0.4 (approximately 3 hours at 37° C.). […] After washing with PBS, the samples were treated with 30% ethanol for 10 minutes, 3% uranyl acetate (Electron Microscopy Sciences) in 30% ethanol/water, 50% ethanol for 10 minutes, and 70% ethanol overnight at 4° C. […]

HeLa cells = experiment: in vitro; conditions: HeLa cells, 1 hr incubation at 37° C.
Description: as §1, §2, §3

physchem = conditions: water
[3] = test system: Plasmodium falciparum 3D7; conditions: 3D7, 96 h
Description: In order to assess the ability of the peptoid oligomers described herein to act as antimalarial agents, fluorescence-based in vitro antimalarial assays were performed.
Cultures are maintained by changing the medium daily and keeping parasitemia below 6%. When performed, parasite cultures are synchronized using a MACS cell separation column (Miltenyi Biotec). To determine parasitemia, the number of parasitized erythrocytes from 500 cells in a Giemsa stained blood smear are counted.
Drug Treatment: • 1. Add 100 μL of warm (37° C.) complete media containing drug to each well of a 96 multi-well clear, sterile plate. • 2. […] After 96 hours of growth*, freeze at −80° C. overnight. *Note: Growth can be examined by pipetting 5 from desired wells onto slides and creating blood smears. […] After freezing, thaw at 37° C. for 4 hours. • 6. Transfer 100 μL, pipetting wells up and down to mix, to a black, sterile 96 well plate. • 7. Create working solution of 0.2 μL of SYBR Green per 1 mL of lysis buffer, and add 100 μL of this solution to each well, pipetting up and down to mix/lyse erythrocytes. *Note: mixture should be a translucent red color. • 8. Incubate at room temperature, protected from light, on a shaker for 1 hour.
Measure the fluorescence using excitation and emission wavelengths of 485 and 530 nm, respectively. […]

[4] = Table 2, S. aureus LAC, clinical isolate of MRSA
[5] = Table 3, MRSA USA300, without serum

SMILES: NCCCN1CC(=O)N(Cc2cc(C(F)(F)F)cc(C(F)(F)F)c2)CC(=O)N(CCCN)CC(=O)N(Cc2cc(C(F)(F)F)cc(C(F)(F)F)c2)CC(=O)N(CCCN)CC(=O)N(Cc2cc(C(F)(F)F)cc(C(F)(F)F)c2)CC1=O [Compound C125, C(NapNbtfmb)3]
- CC50 at 1 h (in vitro; human): 47 µg/mL (≈ 39.4 µM)
- MIC [1, 4]: 3.9 µg/mL (≈ 3.27 µM)
- MIC [1, 5]: 3.9 µg/mL (≈ 3.27 µM)
- decrease in anti-microbial activity in serum [2]: sixteen-fold
- MIC + NHS [2]: 62.5 µg/mL

SMILES: Cc1cc(C)cc(CN2CC(=O)N(CCCN)CC(=O)N(Cc3cc(C)cc(C)c3)CC(=O)N(CCCN)CC(=O)N(Cc3cc(C)cc(C)c3)CC(=O)N(CCCN)CC2=O)c1 [Compound C124, C(NapNdmb)3]
- HC10 (concentration required to lyse 10% of human erythrocytes) (human erythrocytes): 125 µg/mL
- cell morphology by SEM (S. aureus LAC): cell surface damage
- CC50 at 24 h (in vitro; human): ~100 µg/mL (≈ 115 µM)
- CC50 at 1 h (in vitro; human): 180 µg/mL (≈ 207 µM)
- LC50 (50% lethal concentration) (HeLa cells): ~180 µg/mL (≈ 207 µM)
- MIC [1, 4]: 3.9 µg/mL (≈ 4.49 µM)
- MIC ([1]; USA300): 3.9 µg/mL (≈ 4.49 µM)
- decrease in anti-microbial activity in serum [2]: approximately four-fold
- MIC + NHS [2]: 15.6 µg/mL
- solubility (physchem): ≥ 15 mg/mL
- IC50 [3]: 17 µM

SMILES: CC(C)C[C@@H]1NC(=O)[C@H](CCCN)NC(=O)[C@H](C(C)C)NC(=O)[C@@H]2CCCN2C(=O)[C@@H](Cc2ccccc2)NC(=O)[C@H](CC(C)C)NC(=O)[C@H](CCCN)NC(=O)[C@H](C(C)C)NC(=O)[C@@H]2CCCN2C(=O)[C@@H](Cc2ccccc2)NC1=O [Gramicidin S, reference compound] (cyclo(V[Orn]L[dF]PV[Orn]L[dF]P))
- CC50 (in vitro): 31.3 µg/mL (≈ 27.4 µM)
- MIC [1, 5]: 31.3 µg/mL (≈ 27.4 µM)
- MIC + NHS [2]: 31.3 µg/mL

SMILES: Cc1ccc(CN2CC(=O)N(CCCN)CC(=O)N(Cc3ccc(C)cc3)CC(=O)N(CCCN)CC(=O)N(Cc3ccc(C)cc3)CC(=O)N(CCCN)CC2=O)cc1 [Compound C122, C(NapNpmpm)3]
- MIC [1, 4]: 15.6 µg/mL (≈ 18.9 µM)

SMILES: NCCCN1CC(=O)N(c2ccc3c(c2)Cc2ccccc2-3)CC(=O)N(CCCN)CC(=O)N(c2ccc3c(c2)Cc2ccccc2-3)CC(=O)N(CCCN)CC(=O)N(c2ccc3c(c2)Cc2ccccc2-3)CC1=O [Compound C106, C(NapN2flene)3]
- MIC ([1]; USA300): 3.9 µg/mL (≈ 3.88 µM)

SMILES: NCCCN1CC(=O)N(C(c2ccccc2)c2ccccc2)CC(=O)N(CCCN)CC(=O)N(C(c2ccccc2)c2ccccc2)CC(=O)N(CCCN)CC(=O)N(C(c2ccccc2)c2ccccc2)CC1=O [Compound C104, C(NapNdpm)3]
- MIC ([1]; USA300): 3.9 µg/mL (≈ 3.85 µM)

SMILES: N=C(N)NCCCCN1CC(=O)N(CC(c2ccccc2)c2ccccc2)CC(=O)N(CCCCNC(=N)N)CC(=O)N(CC(c2ccccc2)c2ccccc2)CC(=O)N(CCCCNC(=N)N)CC(=O)N(CC(c2ccccc2)c2ccccc2)CC(=O)N(CCCCNC(=N)N)CC(=O)N(CC(c2ccccc2)c2ccccc2)CC(=O)N(CCCCNC(=N)N)CC(=O)N(CC(c2ccccc2)c2ccccc2)CC1=O [Compound 31, C(NgbNdp)5]
- HC10 (concentration required to lyse 10% of human erythrocytes) (human erythrocytes): >62.5 µg/mL

SMILES: NCCCN1CC(=O)N(CC(c2ccccc2)c2ccccc2)CC(=O)N(CCCN)CC(=O)N(CC(c2ccccc2)c2ccccc2)CC(=O)N(CCCN)CC(=O)N(CC(c2ccccc2)c2ccccc2)CC1=O [Compound C3, C(NapNdp)3]
- CC50 (in vitro): 63 µg/mL (≈ 59.8 µM)
- MIC + NHS [2]: 15.6 µg/mL

The next lines start with the values.

- MIC ([1]; USA300): 3.9 µg/mL (≈ 3.95 µM)
SMILES: NCCCN1CC(=O)N(Cc2ccc(C(F)(F)F)cc2)CC(=O)N(CCCN)CC(=O)N(Cc2ccc(C(F)(F)F)cc2)CC(=O)N(CCCN)CC(=O)N(Cc2ccc(C(F)(F)F)cc2)CC1=O [Compound C123, C(NapNptfmpm)3]

- MIC ([1]; USA300): 3.9 µg/mL (≈ 3.56 µM)
SMILES: NCCCN1CC(=O)N(CCC(c2ccccc2)c2ccccc2)CC(=O)N(CCCN)CC(=O)N(CCC(c2ccccc2)c2ccccc2)CC(=O)N(CCCN)CC(=O)N(CCC(c2ccccc2)c2ccccc2)CC1=O [Compound C103, C(NapNdpp)3]

- IC50 [3]: 26.8 µM
SMILES: COc1ccc(CN2CC(=O)N(CCCN)CC(=O)N(Cc3ccc(OC)c(OC)c3)CC(=O)N(CCCN)CC(=O)N(Cc3ccc(OC)c(OC)c3)CC(=O)N(CCCN)CC2=O)cc1OC [Compound C5-1]

- HC10 (concentration required to lyse 10% of human erythrocytes) (human erythrocytes): >250 µg/mL
SMILES: NCCCCN1CC(=O)N(Cc2ccccc2)CC(=O)N(CCCCN)CC(=O)N(Cc2ccccc2)CC(=O)N(CCCCN)CC(=O)N(Cc2ccccc2)CC1=O [Compound 30, C(NabNpm)3] (cyclo([Nlys][Nphe][Nlys][Nphe][Nlys][Nphe]))

- MIC ([1]; USA300): 3.9 µg/mL (≈ 3.85 µM)
SMILES: NCCCN1CC(=O)N(Cc2ccc(-c3ccccc3)cc2)CC(=O)N(CCCN)CC(=O)N(Cc2ccc(-c3ccccc3)cc2)CC(=O)N(CCCN)CC(=O)N(Cc2ccc(-c3ccccc3)cc2)CC1=O [Compound C105, C(NapNpp)3]

- HC10 (concentration required to lyse 10% of human erythrocytes) (human erythrocytes): >250 µg/mL
SMILES: NCCCN1CC(=O)N(Cc2ccccc2)CC(=O)N(CCCN)CC(=O)N(Cc2ccccc2)CC(=O)N(CCCN)CC(=O)N(Cc2ccccc2)CC1=O [Compound 23, C(NapNpm)3] (cyclo([Nphe][Gly(N(CH2)3NH2)][Nphe][Gly(N(CH2)3NH2)][Nphe][Gly(N(CH2)3NH2)]))
